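Where inhibition never reached the appropriate level, the endpoint shown equals the highest concentration tested. Otherwise, values were interpolated linearly from a five-concentration, 48-hour dose response in 96-well plates. The concentration for full growth arrest is given as TGI.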
Assays:
Experiment in all cases: growth of human tumour cells (NCI), 48 h
LXFL 529 NSCLC = tested on: LXFL 529 NSCLC
SK-OV-3 ovarian = tested on: SK-OV-3 ovarian
786-0 renal = tested on: 786-0 renal
OVCAR-3 ovarian = tested on: OVCAR-3 ovarian
SW-620 colon = tested on: SW-620 colon
HCC-2998 colon = tested on: HCC-2998 colon
UO-31 renal = tested on: UO-31 renal
HOP-62 NSCLC = tested on: HOP-62 NSCLC
SN12C renal = tested on: SN12C renal
A498 renal = tested on: A498 renal
COLO 205 colon = tested on: COLO 205 colon
MALME-3M melanoma = tested on: MALME-3M melanoma
HCT-116 colon = tested on: HCT-116 colon
M14 melanoma = tested on: M14 melanoma
SK-MEL-2 melanoma = tested on: SK-MEL-2 melanoma
SNB-78 CNS = tested on: SNB-78 CNS
SK-MEL-5 melanoma = tested on: SK-MEL-5 melanoma
NCI-H522 lung = tested on: NCI-H522 lung
DMS 273 small cell lung = tested on: DMS 273 small cell lung
NCI-H460 lung = tested on: NCI-H460 lung
HL-60(TB) leukemia = tested on: HL-60(TB) leukemia
U251 CNS = tested on: U251 CNS
OVCAR-5 ovarian = tested on: OVCAR-5 ovarian
IGROV1 ovarian = tested on: IGROV1 ovarian
DLD-1 colon = tested on: DLD-1 colon
SNB-19 CNS = tested on: SNB-19 CNS
OVCAR-4 ovarian = tested on: OVCAR-4 ovarian
UACC-62 melanoma = tested on: UACC-62 melanoma
SK-MEL-28 melanoma = tested on: SK-MEL-28 melanoma
CCRF-CEM leukemia = tested on: CCRF-CEM leukemia
ACHN renal = tested on: ACHN renal
SF-295 CNS = tested on: SF-295 CNS
KM12 colon = tested on: KM12 colon
K-562 leukemia = tested on: K-562 leukemia
A549 NSCLC = tested on: A549 NSCLC
KM20L2 colon = tested on: KM20L2 colon
UACC-257 melanoma = tested on: UACC-257 melanoma
SNB-75 CNS = tested on: SNB-75 CNS
NCI-H23 lung = tested on: NCI-H23 lung
XF 498 CNS = tested on: XF 498 CNS
RXF 393 renal = tested on: RXF 393 renal
RPMI-8226 leukemia = tested on: RPMI-8226 leukemia
M19-MEL melanoma = tested on: M19-MEL melanoma
HOP-18 NSCLC = tested on: HOP-18 NSCLC
CAKI-1 renal = tested on: CAKI-1 renal
NCI-H226 lung = tested on: NCI-H226 lung
MOLT-4 leukemia = tested on: MOLT-4 leukemia
SF-539 CNS = tested on: SF-539 CNS
LOX IMVI melanoma = tested on: LOX IMVI melanoma
EKVX NSCLC = tested on: EKVX NSCLC
OVCAR-8 ovarian = tested on: OVCAR-8 ovarian
TK-10 renal = tested on: TK-10 renal
SF-268 CNS = tested on: SF-268 CNS
HOP-92 NSCLC = tested on: HOP-92 NSCLC
HCT-15 colon = tested on: HCT-15 colon
DMS 114 small cell lung = tested on: DMS 114 small cell lung
RXF-631 renal = tested on: RXF-631 renal
SR leukemia = tested on: SR leukemia
HT29 colon = tested on: HT29 colon

## Cc1cccc(-c2nnc3s/c(=C\c4ccc(N(C)C)cc4)c(=O)n23)c1
LXFL 529 NSCLC
  TGI: > 100 µM
SK-OV-3 ovarian
  TGI: > 100 µM
786-0 renal
  TGI: > 100 µM
OVCAR-3 ovarian
  TGI: > 100 µM
SW-620 colon
  TGI: > 100 µM
HCC-2998 colon
  TGI: > 100 µM
UO-31 renal
  TGI: > 100 µM
HOP-62 NSCLC
  TGI: > 100 µM
SN12C renal
  TGI: > 100 µM
A498 renal
  TGI: > 100 µM
COLO 205 colon
  TGI: > 100 µM
MALME-3M melanoma
  TGI: > 100 µM
HCT-116 colon
  TGI: > 100 µM
M14 melanoma
  TGI: > 100 µM
SK-MEL-2 melanoma
  TGI: > 100 µM
SNB-78 CNS
  TGI: > 100 µM
SK-MEL-5 melanoma
  TGI: > 100 µM
NCI-H522 lung
  TGI: > 100 µM
DMS 273 small cell lung
  TGI: > 100 µM
NCI-H460 lung
  TGI: > 100 µM
HL-60(TB) leukemia
  TGI: > 100 µM
U251 CNS
  TGI: > 100 µM
OVCAR-5 ovarian
  TGI: > 100 µM
IGROV1 ovarian
  TGI: > 100 µM
DLD-1 colon
  TGI: > 100 µM
SNB-19 CNS
  TGI: > 100 µM
OVCAR-4 ovarian
  TGI: > 100 µM
UACC-62 melanoma
  TGI: > 100 µM
SK-MEL-28 melanoma
  TGI: > 100 µM
CCRF-CEM leukemia
  TGI: > 100 µM
ACHN renal
  TGI: > 100 µM
SF-295 CNS
  TGI: > 100 µM
KM12 colon
  TGI: > 100 µM
K-562 leukemia
  TGI: > 100 µM
A549 NSCLC
  TGI: > 100 µM
KM20L2 colon
  TGI: > 100 µM
UACC-257 melanoma
  TGI: > 100 µM
SNB-75 CNS
  TGI: > 100 µM
NCI-H23 lung
  TGI: > 100 µM
XF 498 CNS
  TGI: > 100 µM
RXF 393 renal
  TGI: > 100 µM
RPMI-8226 leukemia
  TGI: > 100 µM
M19-MEL melanoma
  TGI: > 100 µM
HOP-18 NSCLC
  TGI: > 100 µM
CAKI-1 renal
  TGI: > 100 µM
NCI-H226 lung
  TGI: > 100 µM
MOLT-4 leukemia
  TGI: > 100 µM
SF-539 CNS
  TGI: > 100 µM
LOX IMVI melanoma
  TGI: > 100 µM
EKVX NSCLC
  TGI: > 100 µM
OVCAR-8 ovarian
  TGI: > 100 µM
TK-10 renal
  TGI: > 100 µM
SF-268 CNS
  TGI: > 100 µM
HOP-92 NSCLC
  TGI: > 100 µM

## CSC(=O)C[C@@]12O[C@@H]([C@@H](C)C3CCC4[C@@H]5C(O)CC6=CC(=O)C=C[C@]6(C)C5CC[C@@]43C)C[C@](C)(O1)C(C)(C)O2 (stereo partly drawn)
LXFL 529 NSCLC
  TGI: 26.4 µM
SK-OV-3 ovarian
  TGI: 42.6 µM
786-0 renal
  TGI: 30.2 µM
OVCAR-3 ovarian
  TGI: 30.2 µM
SW-620 colon
  TGI: 33.2 µM
HCC-2998 colon
  TGI: 41.6 µM
UO-31 renal
  TGI: 24.8 µM
HOP-62 NSCLC
  TGI: 34.8 µM
SN12C renal
  TGI: 31.5 µM
A498 renal
  TGI: 31.5 µM
MALME-3M melanoma
  TGI: 43.5 µM
HCT-15 colon
  TGI: 32 µM
HCT-116 colon
  TGI: 26.4 µM
M14 melanoma
  TGI: 33.3 µM
SK-MEL-2 melanoma
  TGI: 45 µM
SNB-78 CNS
  TGI: 37.6 µM
NCI-H522 lung
  TGI: 30 µM
DMS 273 small cell lung
  TGI: 35.9 µM
NCI-H460 lung
  TGI: 35.8 µM
HL-60(TB) leukemia
  TGI: 38.2 µM
U251 CNS
  TGI: 25.2 µM
OVCAR-5 ovarian
  TGI: 31.8 µM
IGROV1 ovarian
  TGI: 46.2 µM
SNB-19 CNS
  TGI: 33.8 µM
OVCAR-4 ovarian
  TGI: 28.3 µM
UACC-62 melanoma
  TGI: 27 µM
SK-MEL-28 melanoma
  TGI: 32.1 µM
DMS 114 small cell lung
  TGI: 39.9 µM
CCRF-CEM leukemia
  TGI: 19.1 µM
SF-295 CNS
  TGI: 28.6 µM
KM12 colon
  TGI: 32.9 µM
K-562 leukemia
  TGI: 19.9 µM
RXF-631 renal
  TGI: 54.9 µM
A549 NSCLC
  TGI: 32 µM
UACC-257 melanoma
  TGI: 26.9 µM
SR leukemia
  TGI: 34.8 µM
XF 498 CNS
  TGI: 28.8 µM
RXF 393 renal
  TGI: 24.4 µM
RPMI-8226 leukemia
  TGI: 34.3 µM
M19-MEL melanoma
  TGI: 8.4 µM
CAKI-1 renal
  TGI: 34.9 µM
NCI-H226 lung
  TGI: 38.7 µM
HT29 colon
  TGI: 27.6 µM
SF-539 CNS
  TGI: 30.7 µM
LOX IMVI melanoma
  TGI: 25.1 µM
OVCAR-8 ovarian
  TGI: 37.9 µM
TK-10 renal
  TGI: 34.8 µM
SF-268 CNS
  TGI: 34.6 µM
HOP-92 NSCLC
  TGI: 23 µM
